The source made the active and inactive calls. The calls are words filed in the database; no cut-off is given here.
Experiments:
MUGMel1 [1] = experiment: Cytotoxicity against human MUGMel1 cells assessed as reduction in cell viability after 72 hrs by EZ4U reagent based spectrophotometric method; format: functional; conditions: MUGMel1, 72 h
MRC5 = experiment: Cytotoxicity against human MRC5 cells assessed as reduction in cell viability after 72 hrs by EZ4U reagent based spectrophotometric method; format: functional
MUGMel2 [2] = experiment: Induction of apoptosis in human MUGMel2 cells assessed as late apoptotic cells at IC50 concentration after 6 hrs by Annexin V/SYTOX Green based flow cytometric analysis (reference value: 5.69%); format: functional
MUGMel2 [3] = experiment: Induction of apoptosis in human MUGMel2 cells assessed as necrotic cells at IC50 concentration after 6 hrs by Annexin V/SYTOX Green based flow cytometric analysis (reference value: 0.3%); format: functional
WM793 [4] = experiment: Induction of apoptosis in human WM793 cells assessed as viable cells at IC50 concentration after 6 hrs by Annexin V/SYTOX Green based flow cytometric analysis (reference value: 96.2%); format: functional
WM793 [5] = experiment: Induction of apoptosis in human WM793 cells assessed as early apoptotic cells at IC50 concentration after 6 hrs by Annexin V/SYTOX Green based flow cytometric analysis (reference value: 2.77%); format: functional
MUGMel1 [6] = experiment: Induction of apoptosis in human MUGMel1 cells assessed as early apoptotic cells at IC50 concentration after 24 hrs by Annexin V/SYTOX Green based flow cytometric analysis (reference value: 3.27%); format: functional
SBcl2 [7] = experiment: Induction of apoptosis in human SBcl2 cells assessed as necrotic cells at IC50 concentration after 24 hrs by Annexin V/SYTOX Green based flow cytometric analysis (reference value: 0.21%); format: functional
WM793 [8] = experiment: Induction of apoptosis in human WM793 cells assessed as late apoptotic cells at IC50 concentration after 24 hrs by Annexin V/SYTOX Green based flow cytometric analysis (reference value: 0.66%); format: functional
MUGMel1 [9] = experiment: Induction of apoptosis in human MUGMel1 cells assessed as up regulation of NOXA at IC50 concentration after 6 to 24 hrs by RT-qPCR analysis relative to control; format: functional
WM793 [10] = experiment: Induction of apoptosis in human WM793 cells assessed as effect on BAX mRNA expression at IC50 concentration after 6 to 24 hrs by RT-qPCR analysis; format: functional, cell-based
WM793 [11] = experiment: Induction of apoptosis in human WM793 cells assessed as effect on BAD mRNA expression at IC50 concentration after 6 to 24 hrs by RT-qPCR analysis; format: functional, cell-based
WM164 = experiment: Induction of apoptosis in human WM164 cells assessed as up regulation of PUMA at IC50 concentration after 6 to 24 hrs by RT-qPCR analysis; format: functional, cell-based
MUGMel1 [12] = experiment: Induction of apoptosis in human MUGMel1 cells assessed as up regulation of PUMA at IC50 concentration after 6 to 24 hrs by RT-qPCR analysis; format: functional, cell-based
SBcl2 [13] = experiment: Induction of apoptosis in human SBcl2 cells assessed as up regulation of BCL2 at IC50 concentration after 6 to 24 hrs by RT-qPCR analysis; format: functional, cell-based
WM793 [14] = experiment: Induction of apoptosis in human WM793 cells assessed as effect on BAX protein expression at IC50 concentration after 24 hrs by Western blot analysis; format: functional, cell-based
SBcl2 [15] = experiment: Induction of apoptosis in human SBcl2 cells assessed as effect on PUMA protein expression at IC50 concentration after 24 hrs by Western blot analysis; format: functional, cell-based
MUGMel1 [16] = experiment: Induction of apoptosis in human MUGMel1 cells assessed as effect on BAX protein expression at IC50 concentration after 24 hrs by Western blot analysis; format: functional, cell-based

CC(C)=CC[C@@H](OC(=O)C=C(C)C)C1=CC(=O)c2c(O)ccc(O)c2C1=O [DIMETHYLACRYLSHIKONIN]
IC50 (MUGMel1 [1]): 1 µM
IC50 (MRC5): Not Active
Activity (MUGMel2 [2]): 13.53%
Activity (MUGMel2 [3]): 0.39%
Activity (WM793 [4]): 88.54%
Activity (WM793 [5]): 8.45%
Activity (MUGMel1 [6]): 40.28%
Activity (SBcl2 [7]): 0%
Activity (WM793 [8]): 2.78%
fold change (FC) (MUGMel1 [9]): 2.4
Activity (WM793 [10]): inactive
Activity (WM793 [11]): inactive
Activity (WM164): Active
Activity (MUGMel1 [12]): Active
Activity (SBcl2 [13]): Active
Activity (WM793 [14]): inactive
Activity (SBcl2 [15]): inactive
Activity (MUGMel1 [16]): inactive
